Experimental data from publication PMC5376326, “Inhibition of ANO1 by luteolin and its cytotoxicity in human prostate cancer PC-3 cells” (PLoS ONE, 2017).

Assays:
mouse ANO2 = biological target: T1, mouse ANO2 (Mus musculus, UniProt Q8CFW1); experiment: YFP quenching assay in FRT cells expressing mouse ANO2; format: cell-based; conditions: FRT cells expressing mouse ANO2 and YFP; read-out: IC50, ATP-induced activation of ANO2
T1 construct: expressed in transfected cells; host or cells: Fisher rat thyroid (FRT) cells, stably transfected, co-expressing halide sensor YFP
T1 sequence (Q8CFW1 1-1002): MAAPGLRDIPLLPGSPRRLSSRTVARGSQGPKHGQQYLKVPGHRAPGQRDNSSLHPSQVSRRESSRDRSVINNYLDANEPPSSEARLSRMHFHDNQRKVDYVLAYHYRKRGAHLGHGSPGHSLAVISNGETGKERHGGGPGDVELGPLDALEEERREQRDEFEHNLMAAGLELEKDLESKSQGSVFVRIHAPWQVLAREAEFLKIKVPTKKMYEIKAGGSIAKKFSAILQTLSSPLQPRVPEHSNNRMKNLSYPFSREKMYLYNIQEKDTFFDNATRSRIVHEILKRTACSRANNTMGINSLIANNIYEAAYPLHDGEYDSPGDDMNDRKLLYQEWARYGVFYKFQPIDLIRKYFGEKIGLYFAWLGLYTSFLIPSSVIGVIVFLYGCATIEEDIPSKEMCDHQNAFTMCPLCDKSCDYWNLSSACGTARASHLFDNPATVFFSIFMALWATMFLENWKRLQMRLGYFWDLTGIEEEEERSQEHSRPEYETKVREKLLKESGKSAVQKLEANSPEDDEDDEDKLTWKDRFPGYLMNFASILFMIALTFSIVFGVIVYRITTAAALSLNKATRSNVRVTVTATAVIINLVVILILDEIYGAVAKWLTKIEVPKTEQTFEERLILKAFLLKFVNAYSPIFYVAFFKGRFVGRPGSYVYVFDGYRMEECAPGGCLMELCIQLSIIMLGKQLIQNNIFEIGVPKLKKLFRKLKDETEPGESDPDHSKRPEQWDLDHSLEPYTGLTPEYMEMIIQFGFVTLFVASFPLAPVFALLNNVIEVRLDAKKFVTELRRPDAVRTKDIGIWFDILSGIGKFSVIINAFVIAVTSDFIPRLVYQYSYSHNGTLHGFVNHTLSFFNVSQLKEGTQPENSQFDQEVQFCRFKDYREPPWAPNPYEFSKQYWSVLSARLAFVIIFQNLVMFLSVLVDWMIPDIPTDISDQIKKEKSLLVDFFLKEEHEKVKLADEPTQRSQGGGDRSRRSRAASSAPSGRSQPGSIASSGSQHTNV
Experimental: Fisher rat thyroid (FRT) cells were stably transfected with human ANO1 (abc) or mouse ANO2 and the halide sensor YFP as described in previous study. FRT cells were cultured in Coon`s modified F12 medium with 10% FBS, 2 mM L-glutamine, 100 units/ml penicillin and 100 μg/ml streptomycin at 37°C and 5% CO2. PC-3 cells were grown in RPMI 1640 medium supplemented with 10% FBS, 100 units/ml penicillin and 100 μg/ml streptomycin at 37°C and 5% CO2. There were populations of PC-3 cells with high and low expression of ANO1. […]
ANO1 and YFP expressing FRT cells were plated in 96-well black-walled microplates (Corning Inc., Corning, NY) at a density of 20,000 cells per well. Assays were done using FLUOstar Omega microplate reader (BMG Labtech, Ortenberg, Germany) and MARS Data Analysis Software (BMG Labtech) as described in our previous study. […] After 10 minutes incubation at 37°C, 96-well plates were transferred to the plate reader for fluorescence assay. Each well was assayed individually for ANO1-mediated I^- influx by monitoring YFP fluorescence continuously (400 ms per point) for 2 s (baseline), then 140 mM I^- solution containing 200 μM ATP was added at 2 s and then YFP fluorescence was recorded for 6 s. Initial iodide influx rate was determined from the initial slope of fluorescence decrease, by nonlinear regression, following infusion of iodide with ATP.

PC-3 cells = experiment: Scratch wound healing assay in PC-3 cells; format: cell-based, human; conditions: 10 and 30 μM; 48 h post-wound
Experimental: PC-3 cells were cultured in a 96-well plate until they reached ~80% confluence as a monolayer and then the cell layer was wounded using a 96-Well WoundMaker (Essen BioScience, MI) and washed twice with fresh serum free media. The cells were incubated with serum free medium, and images of the wounds were taken using the IncuCyte ZOOM (Essen BioScience, MI). The wound recovery properties of test compounds were analyzed by the IncuCyte software.

O=c1cc(-c2ccc(O)c(O)c2)oc2cc(O)cc(O)c12 [luteolin]
IC50 (mouse ANO2): ~120 µM
Inhibition of wound recovery, high versus low ANO1 expressing PC-3 cells (PC-3 cells): more strongly inhibited
